Experiments:
[1] = tested on: SARS-CoV-2 (Wuhan variant); assay: Viral membrane interaction study (virus pre-treatment at 37 °C or 4 °C); format: cell-based; settings: 10 µM; for virus' viability after pre-treatment at 4 °C (assay B): 1 h at 4 °C; for virus' ability to form plaques after pre-treatment at 37 °C (assay A): 1 h at 37 °C
[2] = tested on: SARS-CoV-2 (Wuhan variant); assay: Quantification of viral RNA synthesis by RT-qPCR; format: cell-based; settings: 10 µM, Vero cells, 48 h
[3] = tested on: SARS-CoV-2 (Wuhan variant); assay: Fusion assay; settings: for reduction in plaque numbers (fusion assay): 1 and 10 µM, compounds added after virus attachment at 4 °C, then 37 °C

Row | SMILES | virus' viability after pre-treatment at 4 °C (assay B) [1] | virus' ability to form plaques after pre-treatment at 37 °C (assay A) [1] | synthesis of viral genomic RNA [2] | reduction in plaque numbers (fusion assay) [3] | cytotoxicity to Vero cells in the fusion assay ([3]; 10 µM)
1 | CC(C)(C)C(=O)OCn1c(=O)c(C#Cc2ccc3c4cccc5cccc(c6cccc2c63)c54)cn(CC(=O)N(CCO)CCO)c1=O [Compound 13] | partially restored | completely inhibited | suppressed the synthesis of viral genomic RNA | statistically significant reduction in plaque numbers | –
2 | O=C(NCCCCO)c1ccc(-c2ccc3c4cccc5cccc(c6cccc2c63)c54)s1 [Compound 17] | partially restored | completely inhibited | suppressed the synthesis of viral genomic RNA | statistically significant reduction in plaque numbers | observable cytotoxicity
3 | O=c1[nH]c(=O)n([C@H]2C[C@H](O)[C@@H](CO)O2)cc1C#Cc1ccc2c3cccc4cccc(c5cccc1c52)c43 [Compound 2, 5-(perylen-3-yl)ethynyl-2′-deoxy-uridine] | partially restored | completely inhibited | suppressed the synthesis of viral genomic RNA | significantly decreased plaque counts only at 10 µM | –

— PMC10307035, “Antiviral activity of singlet oxygen-photogenerating perylene compounds against SARS-CoV-2: Interaction with the viral envelope and photodynamic virion inactivation” (Virus Research, 2023)
